According to paper PMC9231138, “Dihydrotanshinone I Enhances Cell Adhesion and Inhibits Cell Migration in Osteosarcoma U−2 OS Cells through CD44 and Chemokine Signaling” (Molecules, 2022):
Read-outs that look alike come from different tables or passages of the source.

Experiments:
HeLa cells = assay: MTT cell proliferation assay, HeLa cells; type: cell-based; settings: Homo sapiens, MTT, 24 h, read-out: IC50 HeLa cells (24 h)
Protocol: (§1) The effects of tanshinones (DS−1 to DS−5) on the proliferation of U−2 OS cells, HeLa cells, and NRK−49F cells were measured by the classical MTT method with minor modifications as follows. Cells were seeded at 5000 per well in 96-well plates, with each group being repeated in 5 wells, and were incubated for 12 h. DS−1 to DS−5 were added at gradient concentrations, then incubated for 24 and 48 h, respectively. Then, 20 μL MTT solution (solved in PBS, 5 mg/mL) was added to every well, and the cells were further incubated at 37 °C for 4 h until a purple precipitate was visible. The plate was centrifuged at 1000 rpm for 1 min; the supernatant was suctioned, and 150 μL of DMSO was added per well; the plate was shaken on a shaker protected from light for 15 min. We placed the plate in an enzyme marker and measured the absorbance values at a 490 nm wavelength.

NRK−49F cells = assay: MTT cell proliferation assay, NRK−49F cells; type: cell-based, rat; settings: MTT, 24 h, normal rat kidney cells, read-out: IC50 NRK−49F cells (24 h)
Protocol: as §1

U−2 OS cells = assay: MTT cell proliferation assay, U−2 OS cells; type: cell-based; settings: Homo sapiens, U2OS, MTT
Protocol: as §1

[1] = 24 h, read-out: IC50 U−2 OS cells (24 h)
[2] = 48 h, read-out: IC50 U−2 OS cells (48 h)

Compound | IC50 (HeLa cells) | IC50 (NRK−49F cells) | IC50 (U−2 OS cells; [1]) | IC50 (U−2 OS cells; [2])
C[C@H]1COC2=C1C(=O)C(=O)c1c2ccc2c1CCCC2(C)C [DS−2, Cryptotanshinone] | 52.1 ± 3.2 µM | 35.4 ± 3.25 µM | 47.8 ± 4.96 µM | 25.6 ± 0.81 µM
Cc1coc2c1C(=O)C(=O)c1c-2ccc2c(C)cccc12 [DS−3, Tanshinone I] | 20.9 ± 2.81 µM | 108 ± 28.9 µM | 17.8 ± 1.03 µM | 4.54 ± 1 µM
CC1=CCCc2c1ccc1c2C(=O)C(=O)c2c(C)coc2-1 [DS−4, 1,2-Dihydrotanshinquinone] | 25 ± 2.03 µM | 31.8 ± 1.59 µM | 22.1 ± 1.31 µM | 5.89 ± 0.4 µM
Cc1coc2c1C(=O)C(=O)c1c-2ccc2c1CCCC2(C)C [DS−5, Tanshinone IIA] | 32.1 ± 1.94 µM | > 50 µM | 25.4 ± 1.43 µM | 5.91 ± 1.08 µM
